Assay results taken from patent publication US7115609B2, “Alanyl-piperidine heterocyclic derivatives useful against cardiovascular diseases” (Eli Lilly and Company, priority 2001, dated 2006).

| melting point | Compound |
| --- | --- |
| 177 to 182 °C (dec.) | CN1CCC(C2CCN(C(=O)[C@@H](Cc3cccnc3)NC(=O)c3ccc4cc[nH]c4c3)CC2)CC1.Cl |
| 183 to 186 °C (dec.) | CN1CCC(C2CCN(C(=O)[C@@H](Cc3ccncc3)NC(=O)c3ccc4cc[nH]c4c3)CC2)CC1.Cl |
| 175 to 179 °C (dec.) | CN1CCC(C2CCN(C(=O)[C@@H](Cc3ccccn3)NC(=O)c3ccc4cc[nH]c4c3)CC2)CC1.Cl |
| 179 to 185 °C (dec.) | CN1CCC(C2CCN(C(=O)[C@@H](Cc3cn(C)cn3)NC(=O)c3ccc4cc[nH]c4c3)CC2)CC1.Cl |
| 162 to 172 °C (dec.) | CN1CCC(C2CCN(C(=O)[C@@H](CC3CCCCC3)NC(=O)c3ccc4cc[nH]c4c3)CC2)CC1.Cl |
| 162 to 178 °C (dec.) | CN1CCC(C2CCN(C(=O)[C@H](CC3CCOCC3)NC(=O)c3ccc4cc[nH]c4c3)CC2)CC1.Cl |
| 228 to 235 °C (dec.) | CN1CCC(N2CCN(C(=O)[C@@H](Cc3ccncc3)NC(=O)c3ccc4cc[nH]c4c3)CC2)CC1.Cl |
| 213 to 217 °C (dec.) | CN1CCC(N2CCN(C(=O)[C@@H](Cc3ccncc3)NC(=O)c3cc4ccc(Cl)cc4s3)CC2)CC1.Cl |
| 238 to 242 °C (dec.) | CN1CCC(N2CCN(C(=O)[C@@H](Cc3ccncc3)NC(=O)c3cc4cc(Cl)ccc4[nH]3)CC2)CC1.Cl |
| 219 to 223 °C (dec.) | CN1CCC(N2CCN(C(=O)[C@@H](Cc3ccccn3)NC(=O)c3cc4ccc(Cl)cc4s3)CC2)CC1.Cl |
| 232 to 235 °C (dec.) | CN1CCC(N2CCN(C(=O)[C@@H](Cc3ccccn3)NC(=O)c3ccc4cc[nH]c4c3)CC2)CC1.Cl |
| 210 to 214 °C (dec.) | CN1CCC(N2CCN(C(=O)[C@@H](Cc3ccccn3)NC(=O)c3cc4cc(Cl)ccc4[nH]3)CC2)CC1.Cl |
| 215 to 218 °C (dec.) | CN1CCC(N2CCN(C(=O)[C@@H](CCC(=O)O)NC(=O)c3ccc4cc[nH]c4c3)CC2)CC1.Cl |
| 185 to 190 °C (dec.) | CN1CCC(N2CCN(C(=O)[C@@H](CCC(=O)O)NC(=O)c3cc4ccc(Cl)cc4s3)CC2)CC1.Cl |
| 222 to 225 °C (dec.) | CN1CCC(N2CCN(C(=O)[C@@H](CCC(=O)O)NC(=O)c3cc4cc(Cl)ccc4[nH]3)CC2)CC1.Cl |
| 220 to 223 °C (dec.) | CN1CCC(C[C@@H](NC(=O)c2cc3ccc(Cl)cc3s2)C(=O)N2CCN(C3CCN(C)CC3)CC2)CC1.Cl |
| 190 to 193 °C (dec.) | CN1CCC(C[C@@H](NC(=O)c2ccc3cc[nH]c3c2)C(=O)N2CCN(C3CCN(C)CC3)CC2)CC1.Cl |
| 205 to 210 °C (dec.) | CN1CCC(C[C@@H](NC(=O)c2cc3cc(Cl)ccc3[nH]2)C(=O)N2CCN(C3CCN(C)CC3)CC2)CC1.Cl |
| 215 to 219 °C (dec.) | CN1CCC(N2CCN(C(=O)[C@@H](CC(N)=O)NC(=O)c3ccc4cc[nH]c4c3)CC2)CC1.Cl |
| 219 to 223 °C (dec.) | CN1CCC(N2CCN(C(=O)[C@@H](CC(N)=O)NC(=O)c3cc4ccc(Cl)cc4s3)CC2)CC1.Cl |
| 235 to 240 °C (dec.) | CN1CCC(N2CCN(C(=O)[C@@H](CC(N)=O)NC(=O)c3cc4cc(Cl)ccc4[nH]3)CC2)CC1.Cl |
